Reference: ChEMBL document CHEMBL2163248, “Classification of inhibitors of hepatic organic anion transporting polypeptides (OATPs): influence of protein expression on drug-drug interactions” (J Med Chem, 2012)

Key:
[1] = target: T1, Solute carrier organic anion transporter family member 1B1 (Homo sapiens, UniProt Q9Y6L6); experiment: Inhibition of human liver OATP1B1 expressed in HEK293 Flp-In cells assessed as reduction in E17-betaG uptake at 20 uM by scintillation counting; conditions: hek293, 20 µM
T1 sequence (Q9Y6L6 whole entry): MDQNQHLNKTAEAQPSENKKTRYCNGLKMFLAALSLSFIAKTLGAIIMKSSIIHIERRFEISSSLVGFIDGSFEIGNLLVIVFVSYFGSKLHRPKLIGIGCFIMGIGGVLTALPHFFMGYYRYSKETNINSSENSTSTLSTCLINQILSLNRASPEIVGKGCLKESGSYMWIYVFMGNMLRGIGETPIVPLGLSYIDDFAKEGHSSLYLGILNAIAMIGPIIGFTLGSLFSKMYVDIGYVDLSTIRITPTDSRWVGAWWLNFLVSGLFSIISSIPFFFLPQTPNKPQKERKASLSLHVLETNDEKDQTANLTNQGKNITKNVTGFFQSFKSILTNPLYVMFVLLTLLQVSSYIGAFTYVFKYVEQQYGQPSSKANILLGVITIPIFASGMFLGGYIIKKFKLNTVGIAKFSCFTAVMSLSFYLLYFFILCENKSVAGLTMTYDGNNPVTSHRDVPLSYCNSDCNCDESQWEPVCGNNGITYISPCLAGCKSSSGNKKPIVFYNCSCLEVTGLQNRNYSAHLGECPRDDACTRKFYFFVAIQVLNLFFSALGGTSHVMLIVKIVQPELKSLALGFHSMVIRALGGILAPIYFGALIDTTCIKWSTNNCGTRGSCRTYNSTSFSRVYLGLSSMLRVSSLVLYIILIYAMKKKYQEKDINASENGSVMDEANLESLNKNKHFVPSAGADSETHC

[2] = target: T2, Solute carrier organic anion transporter family member 1B3 (Homo sapiens, UniProt Q9NPD5); experiment: Inhibition of human liver OATP1B3 expressed in HEK293 Flp-In cells assessed as reduction in [3H]E17-betaG uptake at 20 uM incubated for 5 mins by scintillation counting; conditions: hek293, 5 min
T2 sequence (Q9NPD5 whole entry): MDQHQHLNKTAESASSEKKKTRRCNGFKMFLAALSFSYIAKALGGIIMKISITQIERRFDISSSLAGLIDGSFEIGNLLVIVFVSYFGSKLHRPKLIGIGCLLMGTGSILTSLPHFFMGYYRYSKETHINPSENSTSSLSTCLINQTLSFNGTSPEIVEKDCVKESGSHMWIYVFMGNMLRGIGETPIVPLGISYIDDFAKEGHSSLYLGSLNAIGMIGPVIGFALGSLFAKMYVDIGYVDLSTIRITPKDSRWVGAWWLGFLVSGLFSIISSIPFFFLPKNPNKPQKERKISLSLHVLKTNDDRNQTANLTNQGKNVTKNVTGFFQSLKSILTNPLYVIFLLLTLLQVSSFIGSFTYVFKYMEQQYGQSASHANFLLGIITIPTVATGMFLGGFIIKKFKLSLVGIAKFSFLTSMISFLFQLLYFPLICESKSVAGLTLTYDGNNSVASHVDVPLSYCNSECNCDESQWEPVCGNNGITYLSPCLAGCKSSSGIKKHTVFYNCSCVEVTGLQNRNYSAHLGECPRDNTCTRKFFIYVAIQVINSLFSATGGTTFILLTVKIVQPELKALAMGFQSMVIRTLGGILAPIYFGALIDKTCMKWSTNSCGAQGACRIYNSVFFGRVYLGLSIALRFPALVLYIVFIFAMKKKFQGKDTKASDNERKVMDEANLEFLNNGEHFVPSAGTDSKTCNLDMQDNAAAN

[3] = target: T3, Solute carrier organic anion transporter family member 2B1 (Homo sapiens, UniProt O94956); experiment: Inhibition of human liver OATP2B1 expressed in HEK293 Flp-In cells assessed as reduction in [3H]E3S uptake at 20 uM incubated for 5 mins by scintillation counting; conditions: hek293, 5 min
T3 sequence (O94956 whole entry): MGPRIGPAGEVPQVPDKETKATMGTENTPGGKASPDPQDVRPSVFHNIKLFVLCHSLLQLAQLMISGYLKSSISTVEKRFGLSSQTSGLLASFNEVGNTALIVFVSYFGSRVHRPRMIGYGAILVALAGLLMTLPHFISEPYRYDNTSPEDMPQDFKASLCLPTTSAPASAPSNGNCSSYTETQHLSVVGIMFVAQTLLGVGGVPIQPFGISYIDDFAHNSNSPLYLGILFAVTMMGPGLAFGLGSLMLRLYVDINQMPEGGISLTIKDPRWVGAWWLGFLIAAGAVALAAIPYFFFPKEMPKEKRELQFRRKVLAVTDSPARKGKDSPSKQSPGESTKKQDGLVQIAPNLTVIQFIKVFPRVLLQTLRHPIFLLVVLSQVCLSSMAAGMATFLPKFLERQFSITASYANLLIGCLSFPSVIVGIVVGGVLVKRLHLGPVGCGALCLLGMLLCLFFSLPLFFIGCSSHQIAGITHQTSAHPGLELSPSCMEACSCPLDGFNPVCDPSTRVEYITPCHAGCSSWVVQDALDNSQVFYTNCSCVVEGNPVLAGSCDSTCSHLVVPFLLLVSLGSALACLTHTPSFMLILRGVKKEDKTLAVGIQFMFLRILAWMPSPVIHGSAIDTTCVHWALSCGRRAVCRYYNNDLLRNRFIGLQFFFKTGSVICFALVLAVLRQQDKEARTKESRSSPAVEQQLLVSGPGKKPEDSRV

SMILES	INH [1] [%]	INH [2] [%]	INH [3] [%]
CC(C)NCC(O)COc1cccc2[nH]ccc12 (configuration not stated) [PINDOLOL]	-24.7	24.5	-10.8
COC(=O)C1=C(C)NC(C)=C(C(=O)OCCN(C)Cc2ccccc2)C1c1cccc([N+](=O)[O-])c1 (configuration not stated) [NICARDIPINE]	65.1	10.1	31.8
CCc1c2c(nc3ccc(OC(=O)N4CCC(N5CCCCC5)CC4)cc13)-c1cc3c(c(=O)n1C2)COC(=O)[C@]3(O)CC [IRINOTECAN]	40.5	26.9	16.3
Cn1nnnc1SCC1=C(C(=O)O)N2C(=O)[C@@H](NC(=O)[C@H](O)c3ccccc3)[C@H]2SC1 [CEFAMANDOLE]	30.2	16.5	2.7
CC#C[C@]1(O)CC[C@H]2[C@@H]3CCC4=CC(=O)CCC4=C3[C@@H](c3ccc(N(C)C)cc3)C[C@@]21C [MIFEPRISTONE]	81.2	80.3	70.7
Fc1ccc([C@@H]2CCNC[C@H]2COc2ccc3c(c2)OCO3)cc1 [PAROXETINE]	33	12.7	37.5
CN/C(=N/CCSCc1nc[nH]c1C)NC#N [CIMETIDINE]	40.3	24.8	-6.2
COC(=O)C1=C(C)NC(C)=C(C(=O)OC(C)C)C1c1cccc2nonc12 (configuration not stated) [ISRADIPINE]	47.5	7.7	12
CC(C)NCC(O)COc1cccc2ccccc12 (configuration not stated) [PROPRANOLOL]	8.9	12.8	10.1
C[C@@H]1O[C@@H](O[C@H]2[C@H](Oc3cc(O)c4c(c3)O[C@H](c3ccc(O)cc3)CC4=O)O[C@H](CO)[C@@H](O)[C@@H]2O)[C@H](O)[C@H](O)[C@H]1O [NARINGIN]	34	37.7	47.1
CCCCC(=O)N(Cc1ccc(-c2ccccc2-c2nnn[nH]2)cc1)[C@H](C(=O)O)C(C)C	62.2	33.7	12.3
CCCCNC(=O)NS(=O)(=O)c1ccc(C)cc1 [TOLBUTAMIDE]	9.1	5.8	15.5
CCCc1nn(C)c2c(=O)[nH]c(-c3cc(S(=O)(=O)N4CCN(C)CC4)ccc3OCC)nc12	22.2	30.8	45.9
CCC[C@@]1(CCc2ccccc2)CC(O)=C([C@H](CC)c2cccc(NS(=O)(=O)c3ccc(C(F)(F)F)cn3)c2)C(=O)O1	89.5	109	99
CC(C)C[C@H](NC(=O)[C@@H](O)[C@H](N)Cc1ccccc1)C(=O)O [UBENIMEX]	10.9	31.8	20.7
C[C@@H]1O[C@@H](O[C@H]2C[C@@H](O)[C@]3(CO)[C@H]4[C@H](O)C[C@]5(C)[C@@H](C6=CC(=O)OC6)CC[C@]5(O)[C@@H]4CC[C@]3(O)C2)[C@H](O)[C@H](O)[C@H]1O [OUABAIN]	50.5	20.5	-24.1
CC(=O)[C@H]1CC[C@H]2[C@@H]3CCC4=CC(=O)CC[C@]4(C)[C@H]3CC[C@]12C [PROGESTERONE]	63.9	33.4	-362.6
C[C@H](CCC(=O)NCC(=O)O)[C@H]1CC[C@H]2[C@@H]3[C@H](O)C[C@@H]4C[C@H](O)CC[C@]4(C)[C@H]3CC[C@]12C [GLYCOCHENODEOXYCHOLATE]	80.2	72	65.3
CCOC(=O)C1=C(C)NC(C)=C(C(=O)OC)C1c1cccc(Cl)c1Cl (configuration not stated) [FELODIPINE]	36.6	18.4	21.4

SMILES	INH [1] [%]	INH [2] [%]	INH [3] [%]
O=C1CN(/N=C/c2ccc([N+](=O)[O-])o2)C(=O)N1 [NITROFURANTOIN]	–	-1.5	23.1
Nc1nc(=O)n([C@@H]2CS[C@H](CO)O2)cc1F [EMTRICITABINE]	6.4	17.1	–
CC(C)n1c(/C=C/C(O)CC(O)CC(=O)O)c(-c2ccc(F)cc2)c2ccccc21 (configuration not stated) [FLUVASTATIN]	–	76	–
COc1cc([C@@H]2c3cc4c(cc3[C@@H](O[C@@H]3O[C@@H]5CO[C@@H](C)O[C@H]5[C@H](O)[C@H]3O)[C@H]3COC(=O)[C@H]23)OCO4)cc(OC)c1O [ETOPOSIDE]	–	–	6.8
CCC(C)(C)C(=O)O[C@H]1C[C@@H](C)C=C2C=C[C@H](C)[C@H](CC[C@@H]3C[C@@H](O)CC(=O)O3)[C@H]21 [SIMVASTATIN]	–	29.3	47.4
Nc1ccc(S(=O)(=O)Nc2ccnn2-c2ccccc2)cc1 [SULFAPHENAZOLE]	–	0.7	17.1
CCCCC1C(=O)N(c2ccccc2)N(c2ccccc2)C1=O [PHENYLBUTAZONE]	–	17	–
CNCCCN1c2ccccc2CCc2ccccc21 [DESIPRAMINE]	–	3.2	-4.4
Cc1ccc(N(CC(=O)O)CC(=O)O)c(OCCOc2cc(-c3c4cc(Cl)c(=O)cc-4oc4cc(O)c(Cl)cc34)ccc2N(CC(=O)O)CC(=O)O)c1	–	88.5	–
C=C[C@H]1C[N@@]2CC[C@H]1C[C@H]2[C@H](O)c1ccnc2ccc(OC)cc12 [QUININE]	54	–	–
COc1ccc(CCN(C)CCCC(C#N)(c2ccc(OC)c(OC)c2)C(C)C)cc1OC (configuration not stated)	–	-9	-62.6
COc1ccc(Cl)cc1C(=O)NCCc1ccc(S(=O)(=O)NC(=O)NC2CCCCC2)cc1 [GLYBURIDE]	–	49.3	77.4
C[C@]12CC[C@H]3[C@@H](CCC4=CC(=O)CC[C@@]43C)[C@@H]1CC[C@@H]2O [TESTOSTERONE]	–	–	-175.1
C=C[C@H]1C[N@@]2CC[C@H]1C[C@@H]2[C@@H](O)c1ccnc2ccc(OC)cc12 [QUINIDINE]	43.3	–	–
COC(=O)[C@H]1[C@H]2C[C@@H]3c4[nH]c5cc(OC)ccc5c4CCN3C[C@H]2C[C@@H](OC(=O)c2cc(OC)c(OC)c(OC)c2)[C@@H]1OC [RESERPINE]	67.2	–	72.3
CC(C)(C)NC(=O)[C@@H]1C[C@@H]2CCCC[C@@H]2CN1C[C@@H](O)[C@H](Cc1ccccc1)NC(=O)[C@H](CC(N)=O)NC(=O)c1ccc2ccccc2n1	–	6.6	–
CC/C(=C(\c1ccccc1)c1ccc(OCCN(C)C)cc1)c1ccccc1 [TAMOXIFEN]	–	28.5	11
CN(CCOc1ccc(NS(C)(=O)=O)cc1)CCc1ccc(NS(C)(=O)=O)cc1 [DOFETILIDE]	1	19.9	–
CCCN(CCC)S(=O)(=O)c1ccc(C(=O)O)cc1 [PROBENECID]	35.2	22	–
